Test results reported in patent US11400073B2, “Prevention and treatment of benign prostatic hyperplasia using a selective inhibitor of the production of reactive oxygen species of mitochondrial origin” (priority 2017, dated 2022).

How the values were obtained:
[1] = in rats; cited from earlier work
IL6 = assay: RT-qPCR of IL6 in Pb-PRL mouse prostate; format: in vivo; conditions: Pb-PRL mice, 60 mg/kg/day, 28 days, vs control; dorsal, lateral, ventral prostate; FIGS. 8A-8C
Experimental: (§1) ATT (anethole trithione) was administered to probasin-prolactin (Pb-PRL) mice. This is a transgenic mouse model in which prolactin is specifically overexpressed by the epithelial cells of the prostate, leading to development of benign hyperplasia having characteristics in common with the human pathology: tissue hypertrophy, hyperplasia of the epithelial and stromal cells, and intra-prostatic inflammation (Kindblom et al., 2003; Bernichtein et al., 2015a; Bernichtein et al., 2015b).
(§2) The control group (excipient) was treated with the oil alone.
(§3) The animals were sacrificed at the end of the 28 days of treatment (cervical dislocation), and the prostates were harvested and analyzed by the standard procedures previously described in the literature (Bernichtein et al. Prostate 2015, Bernichtein et al. PLoS. ONE 2015, Bernichtein et al. Cancer Res 2017).
(§4) The inflammation was measured using two approaches: • CD45 immunolabeling (IHC): making it possible to quantify the number and size of the inflammation sites (image analysis using Calopix software). • RT-qPCR of selected cytokines: IL6 and TNFa.

[2] = marketed as SULFARLEM; cited from earlier work
TNFalpha = assay: RT-qPCR of TNFalpha in Pb-PRL mouse prostate; format: in vivo; conditions: Pb-PRL mice, 60 mg/kg/day, 28 days, vs control; dorsal, lateral, ventral prostate; FIGS. 9A-9C
Experimental: as §1, §2, §3, §4

CD45 = CD45 immunolabeling (IHC) of inflammation sites in Pb-PRL mouse prostate; format: in vivo; conditions: Pb-PRL mice, 60 mg/kg/day, 28 days, vs control; half-prostate; FIG. 7
Experimental: as §1, §2, §3, §4

[3] = system: oxidation/carbonylation of the proteins; assay: Oxidation/carbonylation of the proteins by blot (Oxyblot) in Pb-PRL mouse prostate; format: in vivo; conditions: Pb-PRL mice, 60 mg/kg/day, 28 days, vs control; all lobes; FIGS. 10A-10C
Experimental: as §1, §2, §3
(§5) Oxidative stress will be measured using two approaches: • oxidation/carbonylation of the proteins by blot (Oxyblot™, Merck). • PHD1 and PHD3 dioxygenase expression (RT-qPCR).

PHD3 dioxygenase = assay: RT-qPCR of PHD3 dioxygenase in Pb-PRL mouse prostate; format: in vivo; conditions: Pb-PRL mice, 60 mg/kg/day, 28 days, vs control; FIGS. 12A-12C
Experimental: as §1, §2, §3, §5

[4] = system: epithelial proliferation (Ki-67); assay: Epithelial proliferation by IHC Ki-67 in Pb-PRL mouse prostate; format: in vivo; conditions: Pb-PRL mice, 60 mg/kg/day by gavage, 28 days, vs control group; half-prostate; FIG. 2
Experimental: as §1, §2, §3
Cell proliferation was measured by IHC Ki-67, which makes it possible to calculate the epithelium proliferation index (manual counting or Calopix software).

[5] = system: SRD5A2 (5-alpha-reductase); assay: RT-qPCR of SRD5A2 in Pb-PRL mouse prostate; format: in vivo; conditions: Pb-PRL mice, 60 mg/kg/day, 28 days, vs control; dorsal, lateral, ventral prostate; FIGS. 5A-5C
Experimental: as §1, §2, §3
(§6) This study was performed by RT-qPCR analysis of the expression of elements associated with androgenic signaling and of conventional targets of the androgen receptor in the prostate (AR, PSP 94, Srd5A1, Srd5A2) (Bernichtein et al. Prostate 2015, Sackmann Sala et al. J Pathol 2017).

Pb-PRL mice = assay: Scar fibrosis in Pb-PRL mouse prostate; format: in vivo; conditions: 60 mg/kg/day, 28 days, vs control
Experimental: ATT (anethole trithione) was administered to probasin-prolactin (Pb-PRL) mice. This is a transgenic mouse model in which prolactin is specifically overexpressed by the epithelial cells of the prostate, leading to development of benign hyperplasia having characteristics in common with the human pathology: tissue hypertrophy, hyperplasia of the epithelial and stromal cells, and intra-prostatic inflammation (Kindblom et al., 2003; Bernichtein et al., 2015a; Bernichtein et al., 2015b). […] The control group (excipient) was treated with the oil alone. […] The animals were sacrificed at the end of the 28 days of treatment (cervical dislocation), and the prostates were harvested and analyzed by the standard procedures previously described in the literature (Bernichtein et al. Prostate 2015, Bernichtein et al. PLoS. ONE 2015, Bernichtein et al. Cancer Res 2017).

[6] = system: IQ site of the I complex of the mitochondrial respiratory chain; assay: Action on mitochondrial ROS production; format: biochemical; conditions: mostly at the IQ site of the I complex of the mitochondrial respiratory chain; unlike conventional antioxidants
PSP94 = assay: RT-qPCR of PSP94 in Pb-PRL mouse prostate; format: in vivo; conditions: Pb-PRL mice, 60 mg/kg/day, 28 days, vs control; dorsal, lateral, ventral prostate; FIGS. 6A-6C
Experimental: as §1, §2, §3, §6

PHD1 dioxygenase = assay: RT-qPCR of PHD1 dioxygenase in Pb-PRL mouse prostate; format: in vivo; conditions: Pb-PRL mice, 60 mg/kg/day, 28 days, vs control; FIGS. 11A-11C
Experimental: as §1, §2, §3, §5

[7] = system: mitochondrial oxidative phosphorylation; assay: Effect on mitochondrial oxidative phosphorylation; format: biochemical; conditions: preliminarily demonstrated
HIF1 alpha = assay: RT-qPCR of HIF1 alpha (hypoxia) in Pb-PRL mouse prostate; format: in vivo; conditions: Pb-PRL mice, 60 mg/kg/day, 28 days, vs control; in one or more prostate lobes; FIGS. 13A-13C
Experimental: as §1, §2, §3
Hypoxia was observed by analysis of HIF1 alpha measured by RT-qPCR at the dorsal, lateral and ventral prostate. The results are presented in FIGS. 13A, 13B and […], respectively.

[8] = system: SRD5A1 (5-alpha-reductase); assay: RT-qPCR of SRD5A1 in Pb-PRL mouse prostate; format: in vivo; conditions: Pb-PRL mice, 60 mg/kg/day, 28 days, vs control; dorsal, lateral, ventral prostate; FIGS. 4A-4C
Experimental: as §1, §2, §3, §6

cytokines = conditions: experimental T. vaginalis prostatic infection models; inhibition of ROS production (Kim S-S., 2016); cited from earlier work
VEGF = conditions: Ren, 2015; cited from earlier work
prostatic ROSs = conditions: Ren, 2015; cited from earlier work
HIF-1α = conditions: Ren, 2015; cited from earlier work
[9] = system: cell proliferation / apoptosis; conditions: Ren, 2015; cited from earlier work

COc1ccc(-c2cc(=S)ss2)cc1 [ATT, 5-(4-methoxyphenyl)-3H-1,2-dithiole-3-thione]
half-life [1]: 24 min | expression of IL6 (IL6): decrease | side effects associated to long-term use [2]: no side effect has been reported | expression of TNFalpha (TNFalpha): decrease | number of positive leukocyte cell sites for the CD45 marker (CD45): statistically significant decrease | carbonylation of the proteins (Oxyblot) [3]: statistically significant decrease | expression of the messenger RNAs of PHD3 dioxygenase (PHD3 dioxygenase): statistically significant decrease | epithelial proliferation of the prostate (Ki-67 immunohistochemistry) [4]: statistically significant decrease | expression of 5-alpha-reductase 2 (SRD5A2) messenger RNAs [5]: statistically significant decrease | scar fibrosis (Pb-PRL mice): statistically significant increase | action on mitochondrial ROS production [6]: acts directly and selectively | expression of PSP94 messenger RNAs (PSP94): statistically significant decrease | expression of the messenger RNAs of PHD1 dioxygenase (PHD1 dioxygenase): statistically significant decrease | effect on mitochondrial oxidative phosphorylation [7]: does not affect | expression of the messenger RNAs of the HIF1 alpha hypoxia marker (HIF1 alpha): statistically significant increase | expression of 5-alpha-reductase 1 (SRD5A1) messenger RNAs [8]: statistically significant decrease

c1ccc2c(c1)[I+]c1ccccc1-2 [DPI, diphenylene iodonium]
overexpression of cytokines (cytokines): prevents overexpression

CC1=NN(c2ccccc2)C(=O)C1 [edaravone]
levels of VEGF (VEGF): decreases | levels of prostatic ROSs (prostatic ROSs): decreases | levels of HIF-1α (HIF-1α): decreases | apoptosis [9]: promotes | cell proliferation [9]: reduces
